ChEMBL document CHEMBL1201862, “PubChem BioAssay data set” (2004)
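In this assay, cells in 96-well plates receive the compound at five concentrations for 48 hours. Endpoints are linearly interpolated between the surrounding concentrations. The concentration for 50% growth inhibition is given as GI50.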 Active and inactive are the calls of the source. Cut-off read from the data, not from the text of the source: active = GI50 up to about 1.1 µM and inactive = higher.

Experiments:
Test in all cases: NCI-60 cell line screen, 48 h
SF-539 = system: SF-539
SF-268 = system: SF-268
IGROV-1 = system: IGROV-1
SW-620 = system: SW-620
HCC 2998 = system: HCC 2998
SK-MEL-28 = system: SK-MEL-28
TK-10 = system: TK-10
HOP-62 = system: HOP-62
NCI-H23 = system: NCI-H23
RXF 393 = system: RXF 393
EKVX = system: EKVX
MDA-N = system: MDA-N
MCF7 = system: MCF7
OVCAR-4 = system: OVCAR-4
KM12 = system: KM12
DU-145 = system: DU-145
T47D = system: T47D
HCT-116 = system: HCT-116
UO-31 = system: UO-31
BT-549 = system: BT-549

Measured: GI50

O=C1C2=Cc3ccccc3OC2(O)Oc2ccccc21 (stereo not given)
inactive: SF-539 > 100 µM | SF-268 > 100 µM | IGROV-1 > 100 µM | SW-620 > 100 µM | HCC 2998 > 100 µM | SK-MEL-28 > 100 µM | TK-10 > 100 µM | HOP-62 > 100 µM | NCI-H23 > 100 µM | RXF 393 > 100 µM | EKVX > 100 µM | MDA-N > 100 µM | MCF7 > 100 µM | OVCAR-4 > 100 µM | KM12 > 100 µM | DU-145 > 100 µM | T47D > 100 µM | HCT-116 > 100 µM

COc1c(C)c2nc3ccccc3nc2c2c(O)ccnc12
inactive: SF-539 54.2 µM | SF-268 68.7 µM | IGROV-1 43.3 µM | SW-620 > 100 µM | HCC 2998 > 100 µM | SK-MEL-28 > 100 µM | TK-10 64.4 µM | HOP-62 23.5 µM | NCI-H23 55.6 µM | RXF 393 19.3 µM | EKVX > 100 µM | UO-31 > 100 µM | MDA-N > 100 µM | MCF7 > 100 µM | OVCAR-4 > 100 µM | KM12 > 100 µM | DU-145 34 µM | T47D 6.64 µM | HCT-116 > 100 µM

CC(C(=O)COCc1ccccc1)P1(=O)OC(C)(C)CN1C(C)(C)C (stereo not given)
inactive: SF-539 > 100 µM | SF-268 > 100 µM | SW-620 > 100 µM | HCC 2998 > 100 µM | TK-10 > 100 µM | HOP-62 > 100 µM | NCI-H23 > 100 µM | RXF 393 > 100 µM | EKVX > 100 µM | UO-31 > 100 µM | MDA-N > 100 µM | MCF7 > 100 µM | OVCAR-4 28.8 µM | KM12 > 100 µM | DU-145 > 100 µM | T47D > 100 µM | HCT-116 > 100 µM

COc1ccc(NC(S)=Nc2ccccc2)cc1
inactive: SF-539 > 100 µM | BT-549 > 100 µM | SF-268 > 100 µM | IGROV-1 > 100 µM | SW-620 > 100 µM | HCC 2998 > 100 µM | SK-MEL-28 > 100 µM | TK-10 > 100 µM | HOP-62 > 100 µM | NCI-H23 > 100 µM | RXF 393 98.2 µM | EKVX 96.4 µM | UO-31 > 100 µM | MDA-N > 100 µM | MCF7 > 100 µM | OVCAR-4 > 100 µM | DU-145 > 100 µM | HCT-116 > 100 µM

c1ccc(C(NCC2CCO2)(c2ccccc2)c2ccccc2)cc1 (stereo not given)
inactive: SF-539 17.8 µM | BT-549 22.3 µM | IGROV-1 15.2 µM | SW-620 19.3 µM | HCC 2998 16.9 µM | SK-MEL-28 28.6 µM | TK-10 13.8 µM | NCI-H23 16.3 µM | RXF 393 18.2 µM | EKVX 16.2 µM | UO-31 12.8 µM | MDA-N 24.3 µM | MCF7 16.8 µM | OVCAR-4 16.2 µM | KM12 15 µM | DU-145 27.7 µM | HCT-116 21.5 µM

CCOP(=O)(OCC)C1C(CO)OC(n2ccc(=O)[nH]c2=O)C1O (stereo not given)
inactive: SF-539 > 100 µM | BT-549 > 100 µM | SF-268 > 100 µM | IGROV-1 > 100 µM | SW-620 > 100 µM | HCC 2998 78.7 µM | SK-MEL-28 > 100 µM | TK-10 > 100 µM | HOP-62 > 100 µM | RXF 393 > 100 µM | EKVX > 100 µM | UO-31 > 100 µM | MDA-N > 100 µM | OVCAR-4 74.5 µM | KM12 > 100 µM | T47D > 100 µM | HCT-116 > 100 µM

Cc1ccc(/N=N/c2c(O)c(C(=O)Nc3ccccc3)cc3ccccc23)c([N+](=O)[O-])c1
inactive: BT-549 > 100 µM | SF-268 > 100 µM | IGROV-1 > 100 µM | SW-620 > 100 µM | SK-MEL-28 > 100 µM | TK-10 > 100 µM | HOP-62 > 100 µM | NCI-H23 > 100 µM | RXF 393 > 100 µM | EKVX > 100 µM | UO-31 > 100 µM | MDA-N > 100 µM | OVCAR-4 > 100 µM | KM12 > 100 µM | DU-145 > 100 µM | T47D > 100 µM | HCT-116 > 100 µM

CC(C)=CCc1ccc2[nH]c3c(c2c1)C(=O)C(=O)C(C)=C3C(O)C(C)O (stereo not given)
inactive: SF-539 5.98 µM | SF-268 12.9 µM | IGROV-1 2.36 µM | SW-620 2.09 µM | HCC 2998 6.38 µM | SK-MEL-28 7.19 µM | TK-10 2.52 µM | HOP-62 20.3 µM | NCI-H23 5.4 µM | RXF 393 2.17 µM | EKVX 16.1 µM | UO-31 1.55 µM | MDA-N 3.06 µM | MCF7 1.63 µM | OVCAR-4 3.72 µM | KM12 16.5 µM | DU-145 10.5 µM | T47D 2.29 µM | HCT-116 1.78 µM

OC(c1ccoc1)c1cc2ccccc2s1 (stereo not given)
inactive: SF-539 > 10 µM | SF-268 > 10 µM | IGROV-1 > 10 µM | SW-620 > 10 µM | HCC 2998 > 10 µM | SK-MEL-28 > 10 µM | TK-10 > 10 µM | HOP-62 > 10 µM | NCI-H23 > 10 µM | RXF 393 > 10 µM | EKVX > 10 µM | UO-31 > 10 µM | MDA-N > 10 µM | MCF7 > 10 µM | OVCAR-4 > 10 µM | KM12 > 10 µM | DU-145 > 10 µM | T47D > 10 µM | HCT-116 > 10 µM

BrCC[N+]12CCCN1CCC2
inactive: SF-539 15.2 µM | BT-549 14.4 µM | SF-268 24.9 µM | IGROV-1 22 µM | SW-620 2.28 µM | HCC 2998 22.3 µM | SK-MEL-28 10.7 µM | TK-10 14.5 µM | HOP-62 > 47.3 µM | NCI-H23 18.5 µM | RXF 393 14 µM | EKVX 21.6 µM | UO-31 13.8 µM | MDA-N 16.1 µM | OVCAR-4 4.23 µM | KM12 > 67.3 µM | DU-145 45.3 µM | T47D 9.93 µM | HCT-116 5.66 µM

O=c1cc(N2CCOCC2)n2c(ccc3ccccc32)n1
inactive: SF-539 > 100 µM | BT-549 > 100 µM | SF-268 > 100 µM | IGROV-1 > 100 µM | SW-620 > 100 µM | HCC 2998 > 100 µM | TK-10 > 100 µM | HOP-62 > 100 µM | NCI-H23 > 100 µM | RXF 393 > 100 µM | EKVX > 100 µM | UO-31 > 100 µM | MDA-N 31.7 µM | MCF7 > 100 µM | KM12 > 100 µM | T47D > 100 µM | HCT-116 > 100 µM

NC(=O)c1cc(-c2ccc(-n3ccnc3)cc2)nnc1O
inactive: SF-539 > 100 µM | BT-549 > 100 µM | SF-268 > 100 µM | IGROV-1 > 100 µM | SW-620 > 100 µM | HCC 2998 > 100 µM | SK-MEL-28 > 100 µM | TK-10 > 100 µM | HOP-62 > 100 µM | NCI-H23 > 100 µM | RXF 393 > 100 µM | EKVX > 100 µM | UO-31 > 100 µM | MDA-N > 100 µM | MCF7 67.6 µM | OVCAR-4 > 100 µM | DU-145 > 100 µM | HCT-116 > 100 µM

C=C(CN(C)C)C1(c2ccccc2)CC2(CCCC2)C(=O)O1 (stereo not given)
inactive: SF-539 > 100 µM | SF-268 > 100 µM | IGROV-1 > 100 µM | SW-620 > 100 µM | HCC 2998 > 100 µM | SK-MEL-28 > 100 µM | TK-10 > 100 µM | HOP-62 > 100 µM | NCI-H23 27.2 µM | RXF 393 > 100 µM | EKVX > 100 µM | UO-31 23.9 µM | MDA-N 44.8 µM | MCF7 74.1 µM | OVCAR-4 > 100 µM | KM12 > 100 µM | DU-145 > 100 µM | T47D > 100 µM | HCT-116 70.3 µM

O=C1C(=CNc2ccc([N+](=O)[O-])cc2)C(=O)N(c2ccccc2)C(=O)N1c1ccccc1
inactive: BT-549 > 100 µM | SF-268 > 100 µM | IGROV-1 > 100 µM | SW-620 > 100 µM | HCC 2998 > 100 µM | TK-10 25.5 µM | HOP-62 > 100 µM | NCI-H23 > 100 µM | RXF 393 > 100 µM | EKVX > 100 µM | UO-31 > 100 µM | MDA-N > 100 µM | MCF7 > 100 µM | OVCAR-4 > 100 µM | KM12 36.7 µM | T47D 70.1 µM | HCT-116 > 100 µM

CCOC(=O)c1ncn(CCc2ccc(Cl)cc2)c1C
inactive: SF-539 > 100 µM | BT-549 > 100 µM | SF-268 92.9 µM | IGROV-1 > 100 µM | SW-620 > 100 µM | HCC 2998 > 100 µM | SK-MEL-28 > 100 µM | TK-10 > 100 µM | HOP-62 > 100 µM | NCI-H23 > 100 µM | RXF 393 > 100 µM | EKVX > 100 µM | UO-31 34.5 µM | MDA-N 80.5 µM | MCF7 > 100 µM | OVCAR-4 56.6 µM | KM12 > 100 µM | DU-145 > 100 µM | HCT-116 > 100 µM
